In brackets after ≈: the same amount, converted by molar mass. Activity calls are given as the source filed them. No cut-off for these calls is given here.
Legend:
[1] = Metabolic stability in mouse liver microsomes assessed as half life measured for 60 mins in presence of NADPH; format: ADME, Microsome
[2] = molecular target: Collagenase 3 (Homo sapiens) (UniProt P45452); assay: Inhibition of MMP13 (unknown origin) at 10 uM relative to control
[3] = molecular target: Histone deacetylase 1 (Homo sapiens) (UniProt Q13547); assay: Inhibition of HDAC1 (unknown origin)
[4] = molecular target: T1, Histone deacetylase 8 (Homo sapiens) (UniProt Q9BY41); assay: Inhibition of HDAC8 (unknown origin)
T1 sequence (whole entry): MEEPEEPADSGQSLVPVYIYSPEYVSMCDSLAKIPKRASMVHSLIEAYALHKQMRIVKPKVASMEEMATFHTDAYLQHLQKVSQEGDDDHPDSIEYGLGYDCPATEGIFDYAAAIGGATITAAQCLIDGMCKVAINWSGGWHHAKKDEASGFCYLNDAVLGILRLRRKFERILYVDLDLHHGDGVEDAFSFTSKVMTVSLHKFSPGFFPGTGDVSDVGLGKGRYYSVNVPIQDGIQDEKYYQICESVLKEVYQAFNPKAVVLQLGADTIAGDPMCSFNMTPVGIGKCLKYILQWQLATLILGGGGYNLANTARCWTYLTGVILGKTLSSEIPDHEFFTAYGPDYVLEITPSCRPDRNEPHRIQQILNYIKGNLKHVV

[5] = molecular target: Neutrophil collagenase (Homo sapiens) (UniProt P22894); assay: Inhibition of MMP8 (unknown origin) at 10 uM relative to control
Neutrophil collagenase (Homo sapiens), sequence (P22894 101-467 limits assumed): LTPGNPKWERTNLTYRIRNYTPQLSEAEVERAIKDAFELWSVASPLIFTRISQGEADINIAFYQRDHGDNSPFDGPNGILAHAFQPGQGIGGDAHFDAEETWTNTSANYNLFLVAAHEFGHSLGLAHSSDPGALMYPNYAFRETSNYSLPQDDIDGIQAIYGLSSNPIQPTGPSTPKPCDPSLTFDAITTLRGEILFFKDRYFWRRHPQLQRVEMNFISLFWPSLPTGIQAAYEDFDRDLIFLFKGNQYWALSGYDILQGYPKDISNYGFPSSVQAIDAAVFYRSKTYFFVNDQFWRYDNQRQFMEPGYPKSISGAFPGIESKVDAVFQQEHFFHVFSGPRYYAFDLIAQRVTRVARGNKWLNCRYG

[6] = Metabolic stability in mouse liver microsomes assessed as intrinsic clearance measured per mg protein for 60 mins in presence of NADPH; format: ADME, Microsome; conditions: read-out: CLH
[7] = molecular target: Endoplasmic reticulum aminopeptidase 2 (Homo sapiens) (UniProt Q6P179); assay: Inhibition of ERAP2 (unknown origin)
Endoplasmic reticulum aminopeptidase 2 (Homo sapiens), sequence (Q6P179 whole entry): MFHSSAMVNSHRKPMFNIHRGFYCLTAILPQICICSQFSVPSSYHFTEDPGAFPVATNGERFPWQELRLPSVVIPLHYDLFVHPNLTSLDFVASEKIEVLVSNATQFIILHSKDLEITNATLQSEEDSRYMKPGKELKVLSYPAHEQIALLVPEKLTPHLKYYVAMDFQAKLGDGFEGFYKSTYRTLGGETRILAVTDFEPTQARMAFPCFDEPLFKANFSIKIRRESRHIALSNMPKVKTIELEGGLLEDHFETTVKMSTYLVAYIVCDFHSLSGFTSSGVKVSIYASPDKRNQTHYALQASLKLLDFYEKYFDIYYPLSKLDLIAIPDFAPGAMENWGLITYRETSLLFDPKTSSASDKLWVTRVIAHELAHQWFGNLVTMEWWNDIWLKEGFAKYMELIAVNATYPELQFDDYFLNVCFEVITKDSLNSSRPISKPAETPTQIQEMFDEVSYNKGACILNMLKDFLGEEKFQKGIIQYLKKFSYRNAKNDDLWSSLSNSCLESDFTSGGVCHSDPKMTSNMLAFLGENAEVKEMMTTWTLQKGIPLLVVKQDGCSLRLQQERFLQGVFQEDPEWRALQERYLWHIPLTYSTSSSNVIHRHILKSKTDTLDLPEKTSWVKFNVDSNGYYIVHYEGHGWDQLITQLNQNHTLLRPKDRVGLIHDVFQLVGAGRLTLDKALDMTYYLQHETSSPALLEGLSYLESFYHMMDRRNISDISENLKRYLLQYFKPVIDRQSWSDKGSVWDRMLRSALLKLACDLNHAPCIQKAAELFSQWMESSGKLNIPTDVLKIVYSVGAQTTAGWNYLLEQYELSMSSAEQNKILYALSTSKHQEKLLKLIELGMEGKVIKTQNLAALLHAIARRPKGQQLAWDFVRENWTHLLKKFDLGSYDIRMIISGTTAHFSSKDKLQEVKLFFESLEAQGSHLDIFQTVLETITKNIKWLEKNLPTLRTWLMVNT

[8] = molecular target: Histone deacetylase 5 (Homo sapiens) (UniProt Q9UQL6); assay: Inhibition of HDAC5 (unknown origin)
Histone deacetylase 5 (Homo sapiens), sequence (Q9UQL6 whole entry, the tested form may be a part): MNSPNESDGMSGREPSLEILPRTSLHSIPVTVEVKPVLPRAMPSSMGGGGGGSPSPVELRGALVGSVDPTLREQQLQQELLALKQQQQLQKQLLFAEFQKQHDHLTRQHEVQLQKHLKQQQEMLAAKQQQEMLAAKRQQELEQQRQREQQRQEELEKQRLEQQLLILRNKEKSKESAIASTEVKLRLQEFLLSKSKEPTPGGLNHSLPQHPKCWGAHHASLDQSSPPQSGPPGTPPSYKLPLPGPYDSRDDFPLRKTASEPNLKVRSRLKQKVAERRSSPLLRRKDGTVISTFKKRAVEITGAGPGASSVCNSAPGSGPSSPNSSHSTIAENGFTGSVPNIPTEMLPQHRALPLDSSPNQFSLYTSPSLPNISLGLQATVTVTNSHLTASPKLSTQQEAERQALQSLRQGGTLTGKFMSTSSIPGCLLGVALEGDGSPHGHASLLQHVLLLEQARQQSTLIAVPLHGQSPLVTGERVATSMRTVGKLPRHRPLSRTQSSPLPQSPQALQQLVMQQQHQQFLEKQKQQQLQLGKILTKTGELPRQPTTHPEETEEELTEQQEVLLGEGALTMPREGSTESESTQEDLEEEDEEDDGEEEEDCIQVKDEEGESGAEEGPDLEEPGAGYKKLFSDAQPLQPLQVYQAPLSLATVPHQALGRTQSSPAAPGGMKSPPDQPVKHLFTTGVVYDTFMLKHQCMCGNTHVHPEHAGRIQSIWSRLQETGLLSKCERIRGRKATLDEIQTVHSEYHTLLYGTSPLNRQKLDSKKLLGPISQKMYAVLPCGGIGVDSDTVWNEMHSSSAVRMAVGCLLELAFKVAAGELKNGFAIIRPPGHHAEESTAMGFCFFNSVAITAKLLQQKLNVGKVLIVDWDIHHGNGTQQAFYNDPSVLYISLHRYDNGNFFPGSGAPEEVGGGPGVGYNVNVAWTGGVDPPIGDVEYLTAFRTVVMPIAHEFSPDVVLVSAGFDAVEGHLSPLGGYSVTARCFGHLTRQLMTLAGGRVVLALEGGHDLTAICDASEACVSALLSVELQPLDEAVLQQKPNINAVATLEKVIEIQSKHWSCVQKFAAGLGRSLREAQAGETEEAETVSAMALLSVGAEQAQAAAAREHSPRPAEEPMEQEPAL

[9] = (§1) Inhibition of C-terminal 6-His tagged Plasmodium falciparum M1 aminopeptidase (195 to 1085 residues) expressed in Escherichia coli BL21(DE3) cells using H-Leu-NHMec as substrate assessed as apparent inhibition constant preincubated for 10 mins followed by substrate addition by spectrofluorimetric analysis; conditions: read-out: Ki(app)
[10] = Metabolic stability in human liver microsomes assessed as half life measured for 60 mins in presence of NADPH; format: ADME, Microsome
[11] = test system: Plasmodium falciparum; assay: Antiplasmodial activity against drug-sensitive Plasmodium falciparum 3D7 infected in Red blood cell assessed as growth inhibition measured after 72 hrs by LDH assay; format: functional, organism-based; conditions: 3D7, Erythrocyte
[12] = molecular target: Histone deacetylase 2 (Homo sapiens) (UniProt Q92769); assay: Inhibition of HDAC2 (unknown origin)
[13] = molecular target: Endoplasmic reticulum aminopeptidase 1 (Homo sapiens) (UniProt Q9NZ08); assay: Inhibition of ERAP1 (unknown origin)
Endoplasmic reticulum aminopeptidase 1 (Homo sapiens), sequence (Q9NZ08 whole entry): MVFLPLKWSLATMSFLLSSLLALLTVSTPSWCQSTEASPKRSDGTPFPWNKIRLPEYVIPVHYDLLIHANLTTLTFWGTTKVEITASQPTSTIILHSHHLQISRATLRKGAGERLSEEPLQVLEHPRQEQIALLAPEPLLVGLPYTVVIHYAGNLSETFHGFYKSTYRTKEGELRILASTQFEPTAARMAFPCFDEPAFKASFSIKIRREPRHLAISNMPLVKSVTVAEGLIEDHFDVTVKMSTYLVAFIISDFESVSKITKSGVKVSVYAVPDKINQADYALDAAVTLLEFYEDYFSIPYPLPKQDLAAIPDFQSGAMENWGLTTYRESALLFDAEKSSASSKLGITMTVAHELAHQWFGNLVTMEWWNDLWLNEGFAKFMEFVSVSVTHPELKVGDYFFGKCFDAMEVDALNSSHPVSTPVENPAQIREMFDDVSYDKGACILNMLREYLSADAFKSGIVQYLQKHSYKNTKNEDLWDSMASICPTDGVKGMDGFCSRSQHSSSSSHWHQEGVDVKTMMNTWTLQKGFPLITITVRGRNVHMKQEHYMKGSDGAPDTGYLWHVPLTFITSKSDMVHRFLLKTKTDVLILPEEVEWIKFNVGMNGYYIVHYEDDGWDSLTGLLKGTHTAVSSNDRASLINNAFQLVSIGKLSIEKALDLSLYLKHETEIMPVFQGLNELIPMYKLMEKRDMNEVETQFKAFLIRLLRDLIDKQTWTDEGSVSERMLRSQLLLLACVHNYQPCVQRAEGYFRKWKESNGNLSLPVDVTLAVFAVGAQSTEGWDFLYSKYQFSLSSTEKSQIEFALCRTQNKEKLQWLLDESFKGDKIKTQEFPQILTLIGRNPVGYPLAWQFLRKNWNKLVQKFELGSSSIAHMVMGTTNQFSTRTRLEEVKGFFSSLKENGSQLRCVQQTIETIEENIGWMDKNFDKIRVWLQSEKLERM

[14] = Kinetic solubility of the compound in phosphate buffer at pH 6.5 measured after 30 mins by nephelometric analysis; format: physicochemical; conditions: read-out: Kinetic_solubility
[15] = molecular target: Matrix metalloproteinase-15 (Homo sapiens) (UniProt P51511); assay: Inhibition of MMP15 (unknown origin) at 10 uM relative to control
Matrix metalloproteinase-15 (Homo sapiens), sequence (P51511 132-669 limits assumed): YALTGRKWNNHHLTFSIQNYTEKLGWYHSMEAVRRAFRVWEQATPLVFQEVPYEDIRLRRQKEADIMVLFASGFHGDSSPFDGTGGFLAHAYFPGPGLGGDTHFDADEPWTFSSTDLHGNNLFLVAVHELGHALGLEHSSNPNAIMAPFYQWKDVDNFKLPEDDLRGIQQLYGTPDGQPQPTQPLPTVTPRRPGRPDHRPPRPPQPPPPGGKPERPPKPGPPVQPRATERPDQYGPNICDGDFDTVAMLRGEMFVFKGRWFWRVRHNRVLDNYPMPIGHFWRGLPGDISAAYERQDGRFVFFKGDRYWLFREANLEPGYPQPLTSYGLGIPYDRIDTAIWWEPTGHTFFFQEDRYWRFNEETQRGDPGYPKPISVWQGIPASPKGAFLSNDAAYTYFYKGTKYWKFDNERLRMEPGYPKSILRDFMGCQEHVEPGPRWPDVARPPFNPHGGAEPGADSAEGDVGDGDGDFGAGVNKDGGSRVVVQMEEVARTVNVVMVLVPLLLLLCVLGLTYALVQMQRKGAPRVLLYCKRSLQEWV

[16] = Metabolic stability in human liver microsomes assessed as intrinsic clearance measured per mg protein for 60 mins in presence of NADPH; format: ADME, Microsome; conditions: read-out: CLH
[17] = molecular target: T2, Polyamine deacetylase HDAC10 (Homo sapiens) (UniProt Q969S8); assay: Inhibition of HDAC10 (unknown origin)
T2 sequence (whole entry): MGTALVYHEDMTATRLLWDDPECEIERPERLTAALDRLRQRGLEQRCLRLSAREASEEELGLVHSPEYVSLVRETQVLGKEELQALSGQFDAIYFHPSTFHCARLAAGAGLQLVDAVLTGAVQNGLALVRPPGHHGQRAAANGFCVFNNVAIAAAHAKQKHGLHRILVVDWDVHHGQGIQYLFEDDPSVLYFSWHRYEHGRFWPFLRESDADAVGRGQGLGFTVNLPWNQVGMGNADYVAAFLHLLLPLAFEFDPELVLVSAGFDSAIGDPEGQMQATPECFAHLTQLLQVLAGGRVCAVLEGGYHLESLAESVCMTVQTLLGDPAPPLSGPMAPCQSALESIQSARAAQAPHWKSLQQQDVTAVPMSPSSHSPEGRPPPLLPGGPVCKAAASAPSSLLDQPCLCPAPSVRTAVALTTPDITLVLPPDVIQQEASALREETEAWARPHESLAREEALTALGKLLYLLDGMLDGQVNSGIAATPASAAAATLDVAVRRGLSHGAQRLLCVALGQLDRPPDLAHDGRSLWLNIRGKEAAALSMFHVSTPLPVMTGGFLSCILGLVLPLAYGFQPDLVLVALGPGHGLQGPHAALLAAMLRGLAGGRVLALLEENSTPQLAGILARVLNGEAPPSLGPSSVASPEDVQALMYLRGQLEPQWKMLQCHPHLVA

[18] = molecular target: Matrix metalloproteinase-9 (Homo sapiens) (UniProt P14780); assay: Inhibition of MMP9 (unknown origin) at 10 uM relative to control
Matrix metalloproteinase-9 (Homo sapiens), sequence (P14780 whole entry): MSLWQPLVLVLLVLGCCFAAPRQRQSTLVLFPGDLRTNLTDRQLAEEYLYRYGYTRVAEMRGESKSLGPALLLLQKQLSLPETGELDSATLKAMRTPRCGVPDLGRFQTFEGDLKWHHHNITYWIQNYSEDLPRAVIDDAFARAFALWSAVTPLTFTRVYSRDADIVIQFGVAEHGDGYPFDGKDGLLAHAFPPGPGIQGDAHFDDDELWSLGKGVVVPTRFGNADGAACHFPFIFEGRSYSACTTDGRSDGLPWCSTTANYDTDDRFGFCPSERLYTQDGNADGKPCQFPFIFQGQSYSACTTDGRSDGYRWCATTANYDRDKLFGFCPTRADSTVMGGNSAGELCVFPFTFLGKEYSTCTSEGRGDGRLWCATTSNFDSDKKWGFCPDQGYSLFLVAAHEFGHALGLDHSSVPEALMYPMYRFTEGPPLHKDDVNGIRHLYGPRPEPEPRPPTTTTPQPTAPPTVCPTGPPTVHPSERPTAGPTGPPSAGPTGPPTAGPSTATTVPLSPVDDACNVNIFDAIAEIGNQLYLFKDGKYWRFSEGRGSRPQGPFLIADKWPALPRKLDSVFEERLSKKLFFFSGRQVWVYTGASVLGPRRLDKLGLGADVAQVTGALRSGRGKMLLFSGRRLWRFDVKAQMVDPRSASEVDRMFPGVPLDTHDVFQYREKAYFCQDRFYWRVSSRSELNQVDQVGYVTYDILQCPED

[19] = molecular target: Matrix metalloproteinase-24 (Homo sapiens) (UniProt Q9Y5R2); assay: Inhibition of MMP24 (unknown origin) at 10 uM relative to control
[20] = Kinetic solubility of the compound in 0.01 M HCL at pH 2.0 measured after 30 mins by nephelometric analysis; format: physicochemical; conditions: read-out: Kinetic_solubility
[21] = test system: HEK293; assay: Cytotoxicity against HEK293 cells assessed as inhibition of cell growth at 40 uM; format: toxicity, cell-based; conditions: human, hek293, 40 µM
[22] = molecular target: Histone deacetylase 9 (Homo sapiens) (UniProt Q9UKV0); assay: Inhibition of HDAC9 (unknown origin)
[23] = molecular target: T3, Histone deacetylase 7 (Homo sapiens) (UniProt Q8WUI4); assay: Inhibition of HDAC7 (unknown origin)
T3 sequence (whole entry): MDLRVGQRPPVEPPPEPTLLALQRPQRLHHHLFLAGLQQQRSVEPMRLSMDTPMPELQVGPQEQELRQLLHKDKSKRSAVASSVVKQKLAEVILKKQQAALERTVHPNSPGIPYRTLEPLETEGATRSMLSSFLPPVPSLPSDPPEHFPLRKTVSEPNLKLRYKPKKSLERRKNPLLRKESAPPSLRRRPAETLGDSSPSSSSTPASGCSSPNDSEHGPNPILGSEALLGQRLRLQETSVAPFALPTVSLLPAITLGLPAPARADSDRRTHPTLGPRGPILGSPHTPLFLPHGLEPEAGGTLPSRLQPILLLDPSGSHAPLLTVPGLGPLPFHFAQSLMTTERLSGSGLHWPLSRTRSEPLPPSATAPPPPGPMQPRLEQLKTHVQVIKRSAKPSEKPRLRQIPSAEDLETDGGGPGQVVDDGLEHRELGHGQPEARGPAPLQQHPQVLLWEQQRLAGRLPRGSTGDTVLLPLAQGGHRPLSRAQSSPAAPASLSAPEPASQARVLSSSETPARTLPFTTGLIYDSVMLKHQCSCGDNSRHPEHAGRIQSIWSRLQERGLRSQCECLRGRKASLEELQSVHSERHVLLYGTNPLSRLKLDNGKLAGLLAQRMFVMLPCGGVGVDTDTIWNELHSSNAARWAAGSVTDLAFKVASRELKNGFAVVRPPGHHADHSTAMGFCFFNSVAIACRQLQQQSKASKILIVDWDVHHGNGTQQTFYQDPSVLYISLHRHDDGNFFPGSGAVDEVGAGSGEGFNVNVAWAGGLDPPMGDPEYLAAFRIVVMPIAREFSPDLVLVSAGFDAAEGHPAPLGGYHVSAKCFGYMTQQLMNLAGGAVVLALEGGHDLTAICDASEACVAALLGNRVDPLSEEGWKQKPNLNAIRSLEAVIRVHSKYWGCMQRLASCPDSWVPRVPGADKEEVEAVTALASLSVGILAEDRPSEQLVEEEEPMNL

[24] = as §1, with “M17” for “M1”, “(85” for “(195”, “605” for “1085”, “BL21 (DE3)” for “BL21(DE3)”; conditions: read-out: Ki(app)

SMILES: O=C(CNc1ccccc1)NC(C(=O)NO)c1ccc(-c2cc(F)c(F)c(F)c2)cc1 (centres undefined)
- half-life [1]: 1.75 h
- inhibition [2]: > 50%
- inhibition [3]: inactive
- inhibition [4]: inactive
- inhibition [5]: > 50%
- microsomal CLint [6]: 17 µL/min/mg
- inhibition [7]: inactive
- inhibition [8]: inactive
- Ki [9]: 66 nM
- half-life [10]: 1.77 h
- EC50 [11]: 170 nM
- inhibition [12]: inactive
- inhibition [13]: inactive
- solubility kinetic at 0.5 h [14]: 1.6 µg/mL (≈ 3.73 µM)
- inhibition [15]: > 50%
- microsomal CLint [16]: 16 µL/min/mg
- inhibition [17]: inactive
- inhibition [18]: > 50%
- inhibition [19]: > 50%
- solubility kinetic at 0.5 h [20]: 3.1 µg/mL (≈ 7.22 µM)
- Activity [21]: Non-Toxic
- inhibition [22]: inactive
- inhibition [23]: inactive
- Ki [24]: 57 nM

Source: ChEMBL document CHEMBL5325407, “Structure-based development of potent Plasmodium falciparum M1 and M17 aminopeptidase selective and dual inhibitors via S1'-region optimisation” (Eur J Med Chem, 2023)
